Columns and labels:
Assay in all cases: drug sensitivity score (DSS) from 5-dose viability curve (DSS (area-based score, 0 = no response)); higher = more sensitive (stronger viability inhibition); extreme values may be limits of the assay
[1] = test system: MDCK p60AmotL2-inducible + doxycycline (p60AmotL2 expressing); conditions: doxycycline: 10 ng/mL; 72 h
Procedure, shortened: (§1)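 After 72 h at 37 °C on 384-well plates pre-spotted with 528 oncology drugs at five doses (1-10,000 nM), parental and doxycycline-inducible MDCK cells were assessed; both lines had been given 10 ng/mL doxycycline in the medium before seeding at 2000 cells/well. Viability was taken from CellTiter-Glo luminescence scaled per plate to vehicle and positive controls, and drug sensitivity scores were derived from dose-response fits in the Breeze pipeline.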

[2] = test system: MDCK wild-type + doxycycline; conditions: doxycycline: 10 ng/mL; 72 h
Procedure, shortened: as §1

[3] = test system: MDCK wild-type - doxycycline; conditions: doxycycline: none; 72 h
Procedure, shortened: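 Drug sensitivity scores came from Breeze pipeline dose-response fits of CellTiter-Glo luminescence, scaled per plate between vehicle and positive controls. The assay used parental MDCK cells without doxycycline at 2000 cells/well, exposed for 72 h to 528 oncology drugs at five doses (1-10,000 nM).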

`CC(=O)[C@]1(O)Cc2c(O)c3c(c(O)c2[C@@H](O[C@H]2C[C@H](N)[C@H](O)[C@H](C)O2)C1)C(=O)c1ccccc1C3=O` [Idarubicin] gave a drug sensitivity score [1] of 19, a drug sensitivity score [2] of 13.9 and a drug sensitivity score [3] of 16.6.

`CCOc1ccn(-c2ccc(F)cc2)c(=O)c1C(=O)Nc1ccc(Oc2ccnc(N)c2Cl)c(F)c1` gave a drug sensitivity score [1] of 0, a drug sensitivity score [2] of 0 and a drug sensitivity score [3] of 0.

Work on `CC1(COc2ccc3c(c2)ncn3-c2ccc3cccc(N4CCC(N)CC4)c3n2)COC1` [Crenolanib] yielded a drug sensitivity score [1] of 6.5, a drug sensitivity score [2] of 8.1 and a drug sensitivity score [3] of 5.4.

Work on `Nc1cccc2c1CN(C1CCC(=O)NC1=O)C2=O` (stereo not given) [Lenalidomide] yielded a drug sensitivity score [1] of 0, a drug sensitivity score [2] of 0 and a drug sensitivity score [3] of 0.

With `COc1cc2/c(=N/c3ccc(Br)cc3F)nc[nH]c2cc1OCC1CCN(C)CC1` [Vandetanib] the drug sensitivity score [1] was 4.6, the drug sensitivity score [2] was 0 and the drug sensitivity score [3] was 0.

`C[C@@H]1CN(C(=O)c2ccc(NC(=O)c3cc(O[C@H](C)c4c(Cl)ccc(F)c4Cl)c(N)nn3)cc2)C[C@H](C)N1` [Ensartinib] gave a drug sensitivity score [1] of 1.4, a drug sensitivity score [2] of 0 and a drug sensitivity score [3] of 0.

With `C[C@@H]1CCN(C(=O)CC#N)C[C@@H]1N(C)c1ncnc2[nH]ccc12` [Tofacitinib] the drug sensitivity score [1] was 0, the drug sensitivity score [2] was 0 and the drug sensitivity score [3] was 0.

`CC(C)(C)C[C@@H]1N[C@@H](C(=O)N[C@H]2CC[C@H](O)CC2)[C@H](c2cccc(Cl)c2F)[C@]12C(=O)Nc1cc(Cl)ccc12` gave a drug sensitivity score [1] of 7.2, a drug sensitivity score [2] of 4.7 and a drug sensitivity score [3] of 2.9.

Work on `O=C(NOC[C@H](O)CO)c1ccc(F)c(F)c1Nc1ccc(I)cc1F` yielded a drug sensitivity score [1] of 11.9, a drug sensitivity score [2] of 3.9 and a drug sensitivity score [3] of 2.3.

Work on `COc1cccc2c1C(=O)c1c(O)c3c(c(O)c1C2=O)C[C@@](O)(/C(CO)=N/NC(=O)CCCCCN1C(=O)C=CC1=O)C[C@@H]3O[C@H]1C[C@H](N)[C@H](O)[C@H](C)O1` [Aldoxorubicin] yielded a drug sensitivity score [1] of 11.2, a drug sensitivity score [2] of 8.6 and a drug sensitivity score [3] of 4.5.

`NC[C@@](O)(c1ccc(Cl)cc1)c1ccc(-c2cn[nH]c2)cc1` was tested, and the drug sensitivity score [1] was 0, the drug sensitivity score [2] was 0 and the drug sensitivity score [3] was 0.

For `O=C1Cc2cc(C(=O)NC3C[C@H]4CC[C@@H](C3)N4S(=O)(=O)CC3CCN(CCCC(F)(F)F)CC3)c(Cl)cc2N1` (stereo not given in full), the drug sensitivity score [1] was 0, the drug sensitivity score [2] was 0 and the drug sensitivity score [3] was 0.

`O=C(Nc1ccc2[nH]nc(-c3ccncc3)c2c1)[C@@H]1CCN(CC(=O)N2CCN(c3ccc(-c4ncccn4)cc3)CC2)C1` showed a drug sensitivity score [1] of 10.7, a drug sensitivity score [2] of 6.7 and a drug sensitivity score [3] of 3.5.

Work on `COc1c(C)cnc(Cn2cnc3c(Cl)nc(N)nc32)c1C` [BIIB021] yielded a drug sensitivity score [1] of 20.6, a drug sensitivity score [2] of 19.6 and a drug sensitivity score [3] of 17.4.

For `O=C(O)C1(C(=O)O)CCC1.[NH2-].[NH2-].[Pt+2]` [Carboplatin], the drug sensitivity score [1] was 5, the drug sensitivity score [2] was 4.4 and the drug sensitivity score [3] was 3.6.
